Legend:
[1] = Inhibition of BCRP (unknown origin) transfected in HEK293/R2 cells assessed as reversal of topotecan resistance after 5 days by MTS/PMS assay
[2] = Inhibition of BCRP in human MCF7/MX100 cells assessed as reversal of topotecan resistance after 5 days by MTS/PMS assay
[3] = Inhibition of P-gp (unknown origin) expressed in human LCC6MDR cells assessed as reversal of paclitaxel resistance after 5 days by MTS/PMS assay

| Structure (SMILES) | EC50 [1] | EC50 [2] | EC50 [3] |
| --- | --- | --- | --- |
| Cc1ccc2oc(-c3ccc(OCCCCc4cn(CCN(CCOc5ccc6c(=O)cc(-c7ccccc7)oc6c5)Cc5ccccc5)nn4)cc3)cc(=O)c2c1 | 543 nM | 372 nM | > 1000 nM |
| COC(=O)c1cccc(COc2c(-c3ccc(OCCOCCn4cc(-c5ccc(-c6cn(CCOCCOc7ccc(-c8oc9ccccc9c(=O)c8OCc8cccc(C(=O)OC)c8)cc7)nn6)cc5)nn4)cc3)oc3ccccc3c2=O)c1 | 14 nM | 27 nM | > 1000 nM |
| O=c1cc(-c2ccccc2)oc2cc(OCCOCc3cn(CCOCCOc4ccc(-c5cc(=O)c6cc(F)ccc6o5)cc4)nn3)ccc12 | 285 nM | 195 nM | > 1000 nM |
| Cc1ccc2oc(-c3ccc(OCCCCc4cn(CCOCCOCCOc5ccc(-c6cc(=O)c7ccccc7o6)cc5)nn4)cc3)cc(=O)c2c1 | 285 nM | 160 nM | > 1000 nM |
| Cc1ccc2oc(-c3ccc(OCCCCc4cn(CCOCCOc5ccc(-c6cc(=O)c7cc(F)ccc7o6)cc5)nn4)cc3)cc(=O)c2c1 | 15 nM | 64 nM |  |
| COC(=O)c1cccc(COc2c(-c3ccc(OCCOCCOCCn4cc(CN(Cc5cn(CCOCCOCCOc6ccc(-c7oc8ccccc8c(=O)c7OCc7cccc(C(=O)OC)c7)cc6)nn5)c5ccccc5)nn4)cc3)oc3ccccc3c2=O)c1 | 5.8 nM | 3.9 nM | > 1000 nM |
| O=c1cc(-c2ccc(OCCOCCn3cc(COCCOc4ccc5c(=O)cc(-c6ccccc6)oc5c4)nn3)cc2)oc2ccccc12 | 303 nM | 235 nM | 960 nM |
| Cc1ccc2oc(-c3ccc(OCCCCc4cn(CCOCCOCCOc5ccc(-c6cc(=O)c7cc(F)ccc7o6)cc5)nn4)cc3)cc(=O)c2c1 | 58 nM | 320 nM | 747 nM |
| O=c1cc(-c2ccccc2)oc2cc(OCCN(Cc3ccccc3)Cc3cn(CCOc4ccc5c(=O)cc(-c6ccccc6)oc5c4)nn3)ccc12 | 190 nM | 280 nM | 897 nM |
| Cc1ccc2oc(-c3ccc(OCCCCc4cn(CCOCCOc5ccc(-c6oc7ccccc7c(=O)c6OCc6ccccc6)cc5)nn4)cc3)cc(=O)c2c1 | 33 nM | 24 nM | 605 nM |
| O=c1cc(-c2ccccc2)oc2cc(OCCOCc3cn(CCOCCOCCOc4ccc(-c5cc(=O)c6cc(F)ccc6o5)cc4)nn3)ccc12 | 230 nM | 264 nM | 967 nM |
| O=c1cc(-c2ccccc2)oc2cc(OCCOCCOCCn3cc(COCCOc4ccc5c(=O)cc(-c6ccccc6)oc5c4)nn3)ccc12 | 145 nM | 59 nM | 928 nM |
| COC(=O)c1cccc(COc2c(-c3ccc(OCCOCCn4cc(CN(Cc5cn(CCOCCOc6ccc(-c7oc8ccccc8c(=O)c7OCc7cccc(C(=O)OC)c7)cc6)nn5)c5ccccc5)nn4)cc3)oc3ccccc3c2=O)c1 | 6.8 nM | 2.2 nM | > 1000 nM |
| O=c1cc(-c2ccccc2)oc2cc(OCCOCCn3cc(COCCOc4ccc5c(=O)cc(-c6ccccc6)oc5c4)nn3)ccc12 | 195 nM | 308 nM | > 1000 nM |
| COC(=O)c1cccc(COc2c(-c3ccc(OCCOCCn4cc(CCCOc5ccc6c(=O)cc(-c7ccccc7)oc6c5)nn4)cc3)oc3ccccc3c2=O)c1 | 7.2 nM | 24 nM | 616 nM |
| O=c1cc(-c2ccccc2)oc2cc(OCCOCCOCCn3cc(CN(Cc4ccccc4)Cc4cn(CCOCCOCCOc5ccc6c(=O)cc(-c7ccccc7)oc6c5)nn4)nn3)ccc12 | 83 nM | 250 nM | > 1000 nM |
| Cc1ccc2oc(-c3ccc(OCCCCc4cn(CCN(CCOc5ccc(-c6cc(=O)c7ccccc7o6)cc5)Cc5ccccc5)nn4)cc3)cc(=O)c2c1 | 70 nM | 39 nM | 679 nM |
| OCCOCCn1cc(CN(Cc2ccccc2)Cc2cn(CCOCCO)nn2)nn1 | > 1000 nM | > 1000 nM | > 1000 nM |
| O=c1c(OCc2ccccc2)c(-c2ccc(OCCOCCOCCn3cc(CN(Cc4ccccc4)Cc4cn(CCOCCOCCOc5ccc(-c6oc7ccccc7c(=O)c6OCc6ccccc6)cc5)nn4)nn3)cc2)oc2ccccc12 | 36 nM | 26 nM | 560 nM |
| COC(=O)c1cccc(COc2c(-c3ccc(OCCOCCOCCn4cc(CN5CCN(Cc6cn(CCOCCOCCOc7ccc(-c8oc9ccccc9c(=O)c8OCc8cccc(C(=O)OC)c8)cc7)nn6)CC5)nn4)cc3)oc3ccccc3c2=O)c1 | 31 nM | 40 nM | > 1000 nM |
| Cc1ccc2oc(-c3ccc(OCCCCc4cn(CCOCCOCCOc5ccc6c(=O)cc(-c7ccccc7)oc6c5)nn4)cc3)cc(=O)c2c1 |  | 151 nM |  |
| O=c1cc(-c2ccc(OCCOCCn3cc(CN(Cc4ccccc4)Cc4cn(CCOCCOc5ccc(-c6cc(=O)c7ccccc7o6)cc5)nn4)nn3)cc2)oc2ccccc12 |  | 205 nM | 670 nM |
| Cc1ccc2oc(-c3ccc(OCCOCCOCCn4cc(CN(Cc5ccccc5)Cc5cn(CCOCCOCCOc6ccc(-c7cc(=O)c8cc(C)ccc8o7)cc6)nn5)nn4)cc3)cc(=O)c2c1 |  | 46 nM | 763 nM |

The remaining compounds from weak to strong by EC50 [3], led by results:

| EC50 [1] | EC50 [2] | EC50 [3] | Structure (SMILES) |
| --- | --- | --- | --- |
|  | 18 nM | 437 nM | COC(=O)c1cccc(COc2c(-c3ccc(OCCOCCn4cc(COCCOc5ccc6c(=O)cc(-c7ccccc7)oc6c5)nn4)cc3)oc3ccccc3c2=O)c1 |
|  |  | 430 nM | COC(=O)c1cccc(COc2c(-c3ccc(OCCOCCn4cc(CCCCOc5ccc(-c6cc(=O)c7cc(C)ccc7o6)cc5)nn4)cc3)oc3ccccc3c2=O)c1 |
|  |  | 420 nM | COC(=O)c1cccc(COc2c(-c3ccc(OCCOCCOCCn4cc(CCCCOc5ccc(-c6cc(=O)c7cc(C)ccc7o6)cc5)nn4)cc3)oc3ccccc3c2=O)c1 |
| 54 nM | 58 nM | 403 nM | O=c1cc(-c2ccccc2)oc2cc(OCCOCCOCCn3cc(CN(CCOc4ccc5c(=O)cc(-c6ccccc6)oc5c4)Cc4ccccc4)nn3)ccc12 |
| 52 nM | 203 nM | 384 nM | O=c1cc(-c2ccc(OCCOCCOCCn3cc(CCCOc4ccc5c(=O)cc(-c6ccccc6)oc5c4)nn3)cc2)oc2ccccc12 |
| 34 nM | 39 nM | 365 nM | O=c1cc(-c2ccccc2)oc2cc(OCCCCc3cn(CCOCCOc4ccc5c(=O)cc(-c6ccccc6)oc5c4)nn3)ccc12 |
| 35 nM | 185 nM | 350 nM | Cc1ccc2oc(-c3ccc(OCCOCCOCCn4cc(CCCOc5ccc6c(=O)cc(-c7ccccc7)oc6c5)nn4)cc3)cc(=O)c2c1 |
|  |  | 345 nM | O=c1cc(-c2ccccc2)oc2cc(OCCOCc3cn(CCOCCOc4ccc(-c5oc6ccccc6c(=O)c5OCc5ccccc5)cc4)nn3)ccc12 |
| 25 nM | 47 nM | 344 nM | O=c1cc(-c2ccc(OCCCc3cn(CCOCCOCCOc4ccc(-c5oc6ccccc6c(=O)c5OCc5ccccc5)cc4)nn3)cc2)oc2cc(F)ccc12 |
| 27 nM | 20 nM | 334 nM | O=c1cc(-c2ccccc2)oc2cc(OCCN(Cc3ccccc3)Cc3cn(CCOCCOCCOc4ccc(-c5cc(=O)c6cc(F)ccc6o5)cc4)nn3)ccc12 |
| 44 nM | 31 nM | 325 nM | O=c1cc(-c2ccccc2)oc2cc(OCCCCc3cn(CCOCCOCCOc4ccc(-c5cc(=O)c6cc(F)ccc6o5)cc4)nn3)ccc12 |
| 5.2 nM |  | 325 nM | COC(=O)c1cccc(COc2c(-c3ccc(OCCOCCn4cc(CCCCOc5ccc6c(=O)cc(-c7ccccc7)oc6c5)nn4)cc3)oc3ccccc3c2=O)c1 |
|  |  | 313 nM | COC(=O)c1cccc(COc2c(-c3ccc(OCCOCCOCCn4cc(COCCOc5ccc6c(=O)cc(-c7ccccc7)oc6c5)nn4)cc3)oc3ccccc3c2=O)c1 |
|  |  | 285 nM | COC(=O)c1cccc(COc2c(-c3ccc(OCCOCCOCCn4cc(CCCCOc5ccc6c(=O)cc(-c7ccccc7)oc6c5)nn4)cc3)oc3ccccc3c2=O)c1 |
| 37 nM | 17 nM | 275 nM | O=c1cc(-c2ccc(OCCOCCOCCn3cc(CN(CCOc4ccc5c(=O)cc(-c6ccccc6)oc5c4)Cc4ccccc4)nn3)cc2)oc2ccccc12 |
| 43 nM | 18 nM | 264 nM | O=c1cc(-c2ccccc2)oc2cc(OCCCCc3cn(CCOCCOc4ccc(-c5cc(=O)c6cc(F)ccc6o5)cc4)nn3)ccc12 |
| 65 nM | 63 nM | 264 nM | Cc1ccc2oc(-c3ccc(OCCOCCOCCOCCOCCOc4ccc(-c5cc(=O)c6cc(C)ccc6o5)cc4)cc3)cc(=O)c2c1 [1,16-Bis[40-((6-methyl)-4H-chromen-4-on-2-yl)phenyl]-1,4,7,10,13,16-hexaoxahexadecane] |
| 24 nM | 7.4 nM | 255 nM | O=c1cc(-c2ccc(OCCOCCOCCn3cc(CCCOc4ccc(-c5cc(=O)c6ccc(F)cc6o5)cc4)nn3)cc2)oc2ccccc12 |
| 2 nM | 2.3 nM | 246 nM | COC(=O)c1cccc(COc2c(-c3ccc(OCCOCCOCCn4cc(CCCOc5ccc(-c6cc(=O)c7ccc(F)cc7o6)cc5)nn4)cc3)oc3ccccc3c2=O)c1 |
| 14 nM | 20 nM | 219 nM | Cc1ccc2oc(-c3ccc(OCCOCCOCCn4cc(CCCOc5ccc(-c6cc(=O)c7ccc(F)cc7o6)cc5)nn4)cc3)cc(=O)c2c1 |
| 55 nM | 16 nM | 210 nM | Cc1ccc2oc(-c3ccc(OCCOCCOCCn4cc(CN(CCOc5ccc6c(=O)cc(-c7ccccc7)oc6c5)Cc5ccccc5)nn4)cc3)cc(=O)c2c1 |
| 60 nM | 223 nM | 204 nM | Cc1ccc2oc(-c3ccc(OCCCCc4cn(CCOc5ccc6c(=O)cc(-c7ccccc7)oc6c5)nn4)cc3)cc(=O)c2c1 |
|  |  | 201 nM | O=c1cc(-c2ccc(OCCCc3cn(CCOCCOc4ccc(-c5cc(=O)c6ccccc6o5)cc4)nn3)cc2)oc2ccccc12 |
| 33 nM | 46 nM | 198 nM | Cc1ccc2oc(-c3ccc(OCCOCCOCCn4cc(CCCCOc5ccc6c(=O)cc(-c7ccccc7)oc6c5)nn4)cc3)cc(=O)c2c1 |
| 7.2 nM |  | 155 nM | O=c1cc(-c2ccc(OCCOCCn3cc(CCCOc4ccc(-c5cc(=O)c6ccc(F)cc6o5)cc4)nn3)cc2)oc2ccccc12 |
